Where two headings read alike, the source gives them in different places.

In this assay the target is HIV-1 protease (Human immunodeficiency virus type 1 group M subtype B, UniProt P03369). In words: biochemical. As for the experimental part:
HIV-1 protease activity was measured at 37° C. using a continuous fluorimetric assay based on the method of Toth et al., (Toth et al., 1990, Int. J. Pept. Res. 36 544-550). The substrate, 2-aminobenzoyl-threonine-isoleucine-norleucine-(p-nitro)-phenylalanine-glutamine-arginine-NH2 (Abz-NF^* -6), was synthesised by solid phase peptide synthesis (Kent et al., 1991, In: Peptides 1990: Proceedings of the Twenty-First European Peptide Symposium (Girault, E. and Andrew, D. eds.) pp 172-173, ESCOM, Leiden). Enzyme activity was measured as the increase in fluorescence intensity upon substrate hydrolysis. The change in fluorescence intensity was monitored with a Perkin Elmer LS50B luminescence spectrometer fitted with a thermostatted micro cuvette holder. Measurements were carried out using an excitation wavelength of 320 nm (bandwith 5 nm) and an emission wavelength of […] (bandwith 5 nm).
Inhibition assays were routinely carried out at pH 6.5 and μ=0.1 M using a single substrate concentration. The assay mixtures contained 50 μM Abz-NF^* -6 in 100 mM 2-(N-morpholino)ethanesulphonate buffer, containing 10% (v/v) glycerol and 50 μg/ml bovine serum albumin, in a total final volume of 400 μl. Where inhibitors had to be dissolved in dimethyl sulphoxide or other organic solvents, the final concentration of solvent in the control and inhibition assays were kept absolutely constant because of the severe inhibitory effect of some solvents on the enzyme activity (Bergman et al., 1992, 17th Ann. Lorne Conf. on Protein Struct. and Funct. Abstr.). In all assays, the reaction was initiated by the addition of 10 μl of enzyme solution.

Setting [1] is: Table 9, R isomer, read-out: IC50.
Setting [2] is: Table 1, pH 6.5, 37° C., read-out: IC50.
Setting [3] is: Table 10, pH 6.5, 37° C., read-out: IC50.

One may read the IC50 as the concentration that inhibits the measured activity by half. Regarding `CC[C@H](C)[C@@H]1NC(=O)[C@@H](NC[C@@H](O)[C@H](Cc2ccccc2)NC(=O)O[C@H]2CCOC2)Cc2ccc(cc2)OCCCNC1=O` [Compound 91, [2R, 3S, 11'S, 8'S]-3-[3S-tetrahydrofuranyloxy]amino-4-phenyl-1-[11'-[7',10'-dioxo-8'-(1-methylpropyl)-2'-oxa-6',9'-diazabicyclo[11.2.2]heptadeca-13',15',16'-triene]amino]butan-2-ol], the “protease inhibition, stated in words” value is “not better as a P2 filler over the t-butyl group in 89”. Also, the IC50 under setting [1] stood at 0.015 µM. For `CC[C@H](C)[C@H](NC(=O)[C@@H]1CCCN1C[C@@H](O)[C@@H]1Cc2ccc(cc2)OCC(=O)N[C@@H](CCCNC(=N)N)C(=O)N[C@@H](CC(N)=O)C(=O)N1)C(=O)N[C@H](C(N)=O)C(C)C` [Compound 23], where the note is “pH 6.5”, the IC50 amounted to 0.049 µM. In the case of `CC[C@H](C)[C@@H]1NC(=O)[C@@H](NC[C@@H](O)[C@@H]2Cc3ccc(cc3)OCCCC(=O)N[C@@H](C(C)C)C(=O)N2)Cc2ccc(cc2)OCCCNC1=O` [Compound 111], the IC50 came to 0.008 µM (Table 11, pH 6.5, 37° C., read-out: IC50) and 0.001 µM (read-out: IC50).

As for `NC(=O)C[C@@H]1NC(=O)CCCOc2ccc(cc2)C[C@@H]([C@H](O)CN2CCC[C@H]2C(N)=O)NC1=O` [Compound 6], the IC50 under setting [2] came out at 55 µM.

As to `CC[C@H](C)[C@@H]1NC(=O)[C@@H]2CN(CCCCCNC1=O)CCN2C[C@@H](O)[C@@H]1Cc2ccc(cc2)OCCCC(=O)N[C@@H](C(C)C)C(=O)N1` [Compound 123], the “protease inhibition, stated in words” value was “more successfully mimics JG-365”.

`CC[C@H](C)[C@H](NC(=O)[C@@H]1CCCN1C[C@H](O)[C@@H]1Cc2ccc(cc2)OCC(=O)N[C@@H](Cc2cnc[nH]2)C(=O)N[C@@H](CC(N)=O)C(=O)N1)C(=O)N[C@H](C(N)=O)C(C)C` [Compound 20] had an IC50 (pH 6.5) of 0.026 µM. For `CC[C@H](C)[C@@H]1NC(=O)[C@@H](NC[C@@H](O)[C@@H]2Cc3ccc(cc3)OCCCC(=O)N[C@@H](CC(N)=O)C(=O)N2)Cc2ccc(cc2)OCCCNC1=O` [Compound 109], the “potency relative to compound 110” value is recorded as 100 -fold. Consider `CC(C)(C)OC(=O)N[C@@H](Cc1ccccc1)[C@@H](O)CN[C@H]1Cc2ccc(cc2)OCCCNC(=O)[C@@H](CCC(N)=O)NC1=O` [Compound 108], for which the “protease inhibition, stated in words” value is recorded as “slightly enhanced activity”. Consider `CC[C@H](C)[C@@H]1NC(=O)[C@@H](NC[C@@H](O)[C@H](Cc2ccc(OCC(=O)OC)cc2)NC(=O)OC(C)(C)C)Cc2ccc(cc2)OCCCNC1=O` [Compound 101], for which the IC50 under setting [3] was 0.002 µM. Regarding `CC(C)CN(CC(=O)NC(C)(C)C)C[C@@H](O)[C@@H]1Cc2ccc(cc2)OCCCC(=O)N[C@@H](CC(N)=O)C(=O)N1` [Compound 26], the “protease inhibition, stated in words” value was “only μM instead of nM”. Also, the IC50 (read-out: IC50) came to 1.7 µM. For `CC(C)C[C@@H]1NC(=O)CCCOc2ccc(cc2)C[C@@H]([C@H](O)CN2CCCC[C@H]2C(=O)NC(C)(C)C)NC1=O` [Compound 54], the “protease inhibition, stated in words” value is listed as “slightly better than the isopropyl of 48/49”.

As for `CC[C@H](C)[C@H](NC(=O)[C@@H]1CCCN1C[C@H](O)[C@@H]1Cc2ccc(cc2)OCCCC(=O)N[C@@H](CC(N)=O)C(=O)N1)C(=O)N[C@H](C(N)=O)C(C)C` [Compound 3, [2(S),11'(S),8'(S)]-2-[11'-[6',9'-dioxo-8'-(ethanamide)-2'-oxa-7',10'-diazabicyclo[11.2.2]heptadeca-13',15',16'-triene]]-1-(N-(S)-prolyl-(S)-isoleucyl-(S)-valine amide)ethan-2-ol], the IC50 amounted to 0.039 µM and the “protease inhibition, stated in words” value is “successfully functionally mimicked compound 1”. `CC(C)(C)OC(=O)N[C@@H](Cc1ccccc1)[C@H](O)CN[C@H]1Cc2ccc(cc2)OCCCNC(=O)[C@@H](CCC(N)=O)NC1=O` [Compound 107]: the “protease inhibition, stated in words” value is “slightly enhanced activity”. Besides, the concentration for half-maximal inhibition (IC50) under setting [3] was 0.25 µM.

Under “pH 6.5”, `CC[C@H](C)[C@H](NC(=O)[C@@H]1CCCN1C[C@@H](O)[C@@H]1Cc2ccc(cc2)OCC(=O)N[C@@H](Cc2cnc[nH]2)C(=O)N[C@@H](CC(N)=O)C(=O)N1)C(=O)N[C@H](C(N)=O)C(C)C` [Compound 21] showed an IC50 of 0.339 µM. On to `CC[C@H](C)[C@H](NC(=O)[C@@H]1CCCN1C[C@H](O)[C@@H]1Cc2ccc(cc2)OCC(O)C(O)C(=O)N[C@@H](CC(N)=O)C(=O)N1)C(=O)N[C@H](C(N)=O)C(C)C` (some centres unmarked) [Compound 11], for which the “protease inhibition, stated in words” value is “no improvement was observed in potency compared to 3 or 9”. In addition, the IC50 under setting [2] was found to be 0.049 µM. Regarding `CC(C)(C)NC(=O)[C@@H]1CCCN1C[C@@H](O)[C@@H]1Cc2ccc(cc2)OCCCC(=O)N[C@@H](CC(N)=O)C(=O)N1` [Compound 38], the IC50 (read-out: IC50) was 0.194 µM. As to `CC[C@H](C)[C@H](NC(=O)[C@@H]1CCCN1C[C@@H](O)[C@@H]1CSSCC(NC(C)=O)C(=O)NCC(=O)N[C@@H](CC(N)=O)C(=O)N1)C(=O)N[C@H](C(N)=O)C(C)C` (some centres unmarked) [Compound 16], the “protease inhibition, stated in words” value is listed as “activity was instead reduced”. Where the note is “Table 2, pH 6.5, 37° C., read-out: IC50”, the IC50 was found to be 122 µM. For the compound `CC[C@H](C)[C@H](NC(=O)[C@@H]1CCCN1C[C@@H](O)[C@@H]1Cc2ccc(cc2)OCC(=O)N[C@H](CCC(N)=O)C(=O)N[C@@H](CC(N)=O)C(=O)N1)C(=O)N[C@H](C(N)=O)C(C)C` [Compound 24], the half-maximal inhibitory concentration (IC50) came to 0.04 µM. Still for that read-out and setting: the same measure for `CC[C@H](C)[C@H](NC(=O)[C@@H]1CCCN1C[C@H](O)[C@@H]1Cc2ccc(cc2)OCC(=O)N[C@@H](Cc2ccc(O)cc2)C(=O)N[C@@H](CC(N)=O)C(=O)N1)C(=O)N[C@H](C(N)=O)C(C)C` [Compound 18]: 0.038 µM. For `CC[C@H](C)[C@@H]1NC(=O)[C@@H](NC[C@@H](O)[C@H](Cc2ccccc2)NC(=O)OC(C)(C)C)Cc2ccc(cc2)OCCCNC1=O` [Compound 89, [2R, 3S, 11'S, 8'S]-3-[t-butoxycarbonyl]amino-4-phenyl-1-[11'-[7', 10'-dioxo-8'-(1-methylpropyl)-2'-oxa-6',9'-diazabicyclo[11.2.2]heptadeca-13',15',16'-triene]amino]butan-2-ol], the IC50 under setting [1] was determined as 0.015 µM.

Take `NC(=O)C[C@@H]1NC(=O)CCCOc2ccc(cc2)C[C@@H]([C@@H](O)CN2CCC[C@H]2C(N)=O)NC1=O` [Compound 7]: the “protease inhibition, stated in words” value is given as “reduced potency”. The IC50 under setting [2] is 120 µM. For `CC[C@H](C)[C@@H]1NC(=O)[C@@H](NC[C@@H](O)[C@H](Cc2ccc(OCC(=O)O)cc2)NC(=O)OC(C)(C)C)Cc2ccc(cc2)OCCCNC1=O` [Compound 99], under setting [3], the IC50 turned out to be 0.005 µM. With `O=C1N(Cc2ccc(CO)cc2)[C@H](Cc2ccccc2)[C@H](O)[C@@H](O)[C@@H](Cc2ccccc2)N1Cc1ccc(CO)cc1` [Compound 94, reference compound], the IC50 (read-out: IC50) was 0.001 µM. For `CC(C)N(C(=O)[C@@H]1CCCN1C[C@@H](O)[C@@H]1Cc2ccc(cc2)OCCCC(=O)N[C@@H](CC(N)=O)C(=O)N1)C(C)C` [Compound 40], half-maximal inhibition (IC50) required 106 µM and the “protease inhibition, stated in words” value is recorded as “much less active”. Regarding `CC(C)C[C@@H]1NC(=O)CCCOc2ccc(cc2)C[C@@H]([C@@H](O)CN2CCCC[C@H]2C(=O)NC(C)(C)C)NC1=O` [Compound 55], the “protease inhibition, stated in words” value is reported as “slightly better than the isopropyl of 48/49”.

Compound `CC[C@H](C)[C@H](NC(=O)[C@@H]1CCCN1C[C@H](O)[C@@H]1Cc2ccc(cc2)OCC(=O)N[C@H](CCC(N)=O)C(=O)N[C@@H](CC(N)=O)C(=O)N1)C(=O)N[C@H](C(N)=O)C(C)C` [Compound 25] gave a half-inhibitory concentration (IC50) of 0.04 µM. In the case of `CC[C@H](C)[C@@H]1NC(=O)[C@@H](NC[C@@H](O)[C@H](Cc2ccccc2)NC(=O)[C@@H](NC(=O)[C@H](CC(C)C)NC(C)=O)C(C)C)Cc2ccc(cc2)OCCCNC1=O` [Compound 87, [2(R),3(S),11'(S),8'(S)]-3-[-Acetyl-(S)-leucinyl-(S)-valinyl]amino-4-phenyl-1-[11'-[7',10'-dioxo-8'-(1-methylpropyl)-2'-oxa-6',9'-diazabicyclo[11.2.2]heptadeca-13',15',16'-triene]amino]butan-2-ol], the “protease inhibition, stated in words” value is reported as “little effect”. In addition, under setting [1], the IC50 worked out at 0.002 µM. Take “AcLeuAsnPhe[^* CHOH--CH2 N]ProIleValOMe [Compound 1, reference compound]”: where the note is “AcLeuAsnPhe[CHOH--CH2 N]ProIleValOMe, pH 6.5, 37° C., read-out: IC50”, the IC50 was determined as 0.06 µM. Also, under “versus JG-365”, the “reduction of protease inhibition on truncation of the Serine” value is 10 -fold.

For the compound `CC[C@H](C)[C@@H]1NC(=O)[C@@H](NCC(O)[C@H](Cc2ccccc2)NC(=O)c2cccc(C)c2)Cc2ccc(cc2)OCCCNC1=O` (some centres unmarked) [Compound 92], the IC50 (read-out: IC50) is 0.05 µM. Regarding `CC[C@H](C)[C@H](NC(=O)[C@@H]1CCCN1C[C@H](O)[C@@H]1Cc2ccc(cc2)OCCNCC(=O)N[C@@H](CC(N)=O)C(=O)N1)C(=O)N[C@H](C(N)=O)C(C)C` [Compound 9], the IC50 under setting [2] is 0.037 µM.

The record behind these values is patent US6043357A, “HIV protease inhibitors” (The University of Queensland, priority 1994, dated 2000).
